From publication PMC11187542, “Identification of fragments targeting SMYD3 using highly sensitive kinetic and multiplexed biosensor-based screening” (RSC Medicinal Chemistry, 2024)

Tests used:
SMYD3 [1] = target: T1, SMYD3 (Homo sapiens, UniProt Q9H7B4); experiment: GCI biosensor multi cycle kinetic confirmation of hits; assay type: binding; conditions: two-fold serial dilution starting at 250 μM, 15 °C, global fit 1:1 model
T1 construct: Full length recombinant SMYD3 was produced as previously reported; made in house; host or cells: E. coli BL21(DE3), in some cases Rosetta 2
T1 sequence (Q9H7B4 1-428): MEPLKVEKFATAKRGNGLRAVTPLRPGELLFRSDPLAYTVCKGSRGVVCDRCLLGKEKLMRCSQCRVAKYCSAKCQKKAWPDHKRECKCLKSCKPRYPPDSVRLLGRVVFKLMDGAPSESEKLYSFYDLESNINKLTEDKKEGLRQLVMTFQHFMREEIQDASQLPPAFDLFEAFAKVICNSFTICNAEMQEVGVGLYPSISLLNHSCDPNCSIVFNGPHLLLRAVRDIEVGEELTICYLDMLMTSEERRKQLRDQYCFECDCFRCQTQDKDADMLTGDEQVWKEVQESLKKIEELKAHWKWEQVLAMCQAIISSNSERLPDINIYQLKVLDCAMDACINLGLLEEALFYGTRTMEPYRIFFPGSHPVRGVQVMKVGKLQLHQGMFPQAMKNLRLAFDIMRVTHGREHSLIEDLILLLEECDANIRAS
Procedure: Selected screening hits were also re-tested by conventional multi cycle kinetic analysis in order to confirm the interactions (some compounds were no longer available). Two variants of the GCI biosensor assay were set up, using different immobilisation levels, to allow the confirmation of hits over a broad range of affinities. […] The kinetics varied for the selected hits (ESI, ^† Fig. S2). All hits were not confirmed (ESI, ^† Fig. S1b).
(§1) All interaction kinetic experiments were conducted with a GCI–flow-based biosensor (WAVEdelta, Creoptix AG/Malvern Panalytical) and PCH WAVEchip (Creoptix AG/Malvern Panalytical) sensor chips. The sensor chips were conditioned using injections of borate buffer (10 mM sodium tetraborate pH 8.5, 1 M NaCl). The running buffer composition, if not otherwise stated, was TBS buffer (50 mM Tris, 150 mM NaCl, 0.5 mM TCEP, 0.05% Tween 20, 1% DMSO, pH 8). SMYD3 was diluted to the desired concentration in 10 mM bis-Tris (pH 7.0) and amine coupled to the sensor surface of the PCH sensor chip. The sensor chip was functionalized at 25 °C by immobilising SMYD3 with EDC and NHS (Xantec) using an injection time of 420 s and a flow rate of 10 μL min^−1. The immobilisation levels ranged from 5000 pg mm^−2 to 18 500 pg mm^−2 surface mass to enable analysis of fragments spanning a broad range of affinities. After immobilization, the surface was deactivated with a running buffer containing 50 mM Tris for 420 s. The GCI data referencing and analysis were performed using WAVEcontrol V4.5 (Creoptix AG).
(§2) Kinetic measurements with controls and fragments were performed at 15 °C. Analysis of controls and follow up of hits was done using the multi cycle kinetic (MCK) injection of a concentration series for the same time, with a two-fold serial dilution starting at 250 μM for each compound. Solvent correction was performed ranging from 0.5–1.8% DMSO. Blank samples of the running buffer, 1× TBS (50 mM Tris, 150 mM NaCl, 0.5 mM TCEP, 0.05% Tween 20, 1% DMSO, pH 8), were injected during the measurements every fifth cycle. The experimental design illustrated in Fig. 1 was used for the screening against all four surfaces. The sensorgrams were adjusted to account for solvent correction and blank subtraction. Kinetic fitting was performed with the Direct Kinetics engine of WAVEcontrol software V4.5 (Creoptix AG) with a suitable fitting model.
FL06268 Superstoichiometric and
Figure 1. Examples of sensorgrams from multicycle kinetic experiments with initial fragment hits and SMYD3. A)
Fragments for which crystal structures of the complex with SMYD3 were obtained. A global fit of the sensorgrams
crystal structures were not obtained. […]

SMYD3 [2] = target: T1, SMYD3; experiment: X-ray crystallography of SMYD3-fragment complexes (co-crystallization and soaking); design: key to XRC: success or failure of crystallization in complex with SMYD3: The success (+) or failure (−) of crystallization in complex with SMYD3; The success (+) or failure (−) of crystallization in complex with SMYD3; conditions: 5 mM fragment co-crystallization or soaking
Text: To identify binding sites and binding modes, the fragment hits (Table 1) were used in both co-crystallization and soaking experiments to obtain SMYD3-fragment co-crystals for X-ray crystallographic analyses. Diffraction data of 1.6–1.9 Å maximum resolution were obtained for four fragments (Fig. 5). For data collection and refinement statistics, see ESI, ^† Table S1.
Four new sites were thus identified.
Polder (F0–Fc) maps (Fig. 5, right) were generated to establish whether the observed electron density features were more likely to represent background noise or to belong to bound fragments. These omit maps are generated upon exclusion of the ligand and surrounding solvent from the model, which aids in visualizing weak densities. […] For fragments FL01507, FL08580 and FL08619, a comparison of the maps obtained after refinement with a bound fragment with maps obtained upon their replacement with either glycerol or acetate, which were present in the crystallization or cryo-protectant solutions, respectively, was required.
8 mg mL^−1 of SMYD3 in storage buffer (TBS buffer containing 2 mM DTT) was pre-incubated for 4–8 hours with 5 mM of a respective fragment hit compound and 10% (v/v) DMSO. Subsequently, 1 μL of this solution was mixed with an equal volume of reservoir solution (100 mM Tris, 100 mM magnesium acetate, 15–17% PEG3350, pH 8.25–8.75) to create the drops for co-crystallization by hanging drop vapour diffusion performed at 20 °C. Needle-like co-crystals nucleated within 12 h of equilibration against the reservoir. In addition, crystals of SMYD3 obtained in ligand-free crystallization setups were soaked with fragment solution prior to freezing. All crystals were cryo-protected via brief immersion in reservoir solution supplemented with 10% (v/v) glycerol.
Diffraction data were collected at beamline ID23-1 of the European Synchrotron Radiation Facility (ESRF, Grenoble, France). Data were indexed, auto-processed, scaled and merged on-site using the implemented data processing routines and software. Fragment-associated electron density features were identified upon data analysis with the Pipedream system (version 1.4.0, Global Phasing Ltd, Cambridge, United Kingdom), which includes data processing with autoPROC,[14] molecular replacement with Phaser,[15] structure refinement with BUSTER version 2.10.4 (Global Phasing Ltd, Cambridge, United Kingdom), automated ligand fitting with Rhofit (Global Phasing Ltd, Cambridge, United Kingdom) and BUSTER post-refinement.[16] Refinement was done with Phenix,[17] and model building with Coot.[18] (F0–Fc) difference density maps for models, from which ligand atoms and surrounding water molecules were removed, were generated using Phenix.

[3] = target: T2, SMYD3 in complex with active site-specific tight-binding inhibitor EPZ031686 (Homo sapiens, UniProt Q9H7B4); experiment: GCI biosensor kinetic screening, active site blocked SMYD3 surface
T2 construct: Full length recombinant SMYD3 was produced as previously reported; made in house; host or cells: E. coli BL21(DE3), in some cases Rosetta 2
T2 sequence (Q9H7B4 1-428): T1 sequence (Q9H7B4 1-428)
Text: (§3) A multiplexed screening assay was set up with three different SMYD3 surfaces and a blank reference surface in flow channels 1–4 (FC1–FC4) (Fig. 2a), as described previously.[5] The apo SMYD3 surface detected fragments interacting anywhere on SMYD3, while a SMYD3 surface blocked by active site-specific tight-binding inhibitor EPZ031686 detected compounds binding elsewhere. The denatured surface served as a reference, detecting fragments binding to unfolded proteins, also potentially present to a significant degree in the other two surfaces.
(§4) The library was screened using the approach described in Fig. 1, i.e. injection of fragments at 250 μM for increasing durations of time in a single cycle, using a flow rate of 100 μL min^−1, data acquisition set to 40 Hz and with an association time of 5 s and dissociation of 20 s. Each fragment was addressed to all four channels and interactions with the native and blocked surfaces compared. The experimental conditions were chosen to ensure that the assay could reliably characterize the fast and transient interactions expected from typical fragments.
(§5) The kinetic screening of 1056 compounds was successfully completed in 72 hours. […] Hits were identified with full kinetic information using dissociation phases.
as §1, §2

SMYD3 [4] = target: T1, SMYD3; design: method as in PMID 31389685; conditions: previously obtained, SPR-based biosensor assay, cited from earlier work
SMYD3 (apo, native) = target: T3, SMYD3 (apo, native) (Homo sapiens, UniProt Q9H7B4); experiment: GCI biosensor kinetic screening, apo SMYD3 surface; assay type: binding; conditions: control SAH at 25 μM, multiple injection design
T3 construct: Full length recombinant SMYD3 was produced as previously reported; made in house; host or cells: E. coli BL21(DE3), in some cases Rosetta 2
T3 sequence (Q9H7B4 1-428): T1 sequence (Q9H7B4 1-428)
Text: as §3
After preparing the sensor surface and immobilising SMYD3, the functionality of the surface was assessed via analysis of interactions with the co-factor product S-adenosyl-homocysteine (SAH). It was used as a control in all experiments, confirming that sensor surfaces were intact. This was done using the novel multiple injection-based experimental design (Fig. 1) at 25 μM, i.e. in a weak binder mode (Fig. 2b).
as §4, §5, §1, §2

Outcome of multicycle kinetic experiment (sensorgram assessment) (SMYD3 [1]) | XRC: success or failure of crystallization in complex with SMYD3 (SMYD3 [2]) | LE (ligand efficiency) ([3]; LE = −RT ln(KD)/n, blocked SMYD3 surface) | Kd ([3]; initial kinetic screening, fragment 250 μM, 15 °C, SMYD3 blocked by EPZ031686) [µM] | kd ([3]; initial kinetic screening, fragment 250 μM, 15 °C, SMYD3 blocked by EPZ031686, 1:1 model) [s⁻¹] | kon at 250 µM ([3]; initial kinetic screening, fragment 250 μM, 15 °C, SMYD3 blocked by EPZ031686, 1:1 model, read-out: ka) [M⁻¹ s⁻¹] | Compound | ka (SMYD3 [4]) | kd (SMYD3 [4]) [s⁻¹] | Kd (SMYD3 [4]; read-out: derived KD) [µM] | ka (SMYD3 (apo, native)) [M⁻¹ s⁻¹] | kd (SMYD3 (apo, native)) [s⁻¹]
Far from saturation | (+) | 0.55 (kcal^-1 mol^-1)/HA | 38 | 1.06 | 27300 | O=C(O)C(=O)c1ccccc1 [FL08619] |  |  |  |  | 
 |  |  |  |  |  | Nc1ncnc2c1ncn2[C@@H]1O[C@H](CSCC[C@H](N)C(=O)O)[C@@H](O)[C@H]1O [SAH, S-adenosyl-homocysteine] | (2.7 ± 0.1) × 10^6 M^-1 s^-1 | 1.6 ± 0.9 | 0.611 ± 0.002 | 304000 to 3.52e+06 | 0.748 to 4.92
